# US20050124634A1, “1,4-dihydropyridine compounds, pharmaceutical compositions, and methods for the treatment of cardiovascular disease” (MYOGEN, INC., priority 2003, published 2005)
# What was measured:
# [1] = test system: secretion of atrial natriuretic factor; assay: Anti-hypertrophic activity in NRVM, ANF ELISA (ANF secretion); type: cell-based, rat; settings: Rattus norvegicus, read-out: IC50 of the ANF ELISA (antihypertrophic activity)
# Protocol: Anti-hypertrophic Activity of Racemic Compound 1 and Purified Enantiomers of Compound 1. Neonatal rat ventricular myocytes (NRVM) were isolated from 1 to 3 day-old Sprague-Dawley rats using enzymatic digestion and myocyte enrichment techniques. NRVM were cultured in serum-containing media for 18 hours. For the continuation of culture, serum-free media was used. Hypertrophy of NRVM was induced using pharmacological stimuli, including phenylephrine, endothelin-1, and […]. Hypertrophic responses were determined using methods including the following: measurement of total cellular protein; secretion of atrial natriuretic factor; determination of cell volume; determination of the expression of so-called fetal genes such as atrial natriuretic factor, beta-myosin heavy chain and alpha-skeletal actin. ANF secretion was the most sensitive assay for measuring hypertrophy, and the IC50 of the ANF ELISA was the measurement used to determine antihypertrophic activity.
# α-MyHC protein = α-MyHC protein levels in NRVM by Western blotting; type: cell-based, rat; settings: NRVM stimulated 3 days; Compound 1 10 nM to 10 μM
# Protocol: FIG. 2 Effect of Compound 1 on α-MyHC protein levels as detected by Western blotting. NRVM are stimulated with Compound 1 at different concentrations for 3 days. Protein extracts are prepared, proteins are separated by SDS-PAGE electrophoresis, transferred to PVDF membrane, and detected with an anti-α-MyHC monoclonal antibody.
# As an independent measure of changes in α-MyHC protein levels, NRVM stimulated with Compound 1 were analyzed for α-MyHC protein levels by Western blotting. Protein extracts prepared from NRVM stimulated with a range of concentrations of Compound 1 from 10 nM to 10 μM were separated by SDS-PAGE and transferred to PVDF membrane. Levels of α-MyHC protein were detected by Western blotting using the same anti-α-MyHC monoclonal antibody used in the cytoblot assay. […] This experiment verified that the changes in α-MyHC protein detected in the cytoblot assay were also evident by Western blotting.
# α-MyHC protein levels = assay: α-MyHC cytoblot assay in neonatal rat ventricular myocytes (NRVM); type: cell-based; settings: NRVM, 3 days
# Protocol: FIG. 1 Concentration-dependent effect of Compound 1 on α-MyHC protein levels in the cytoblot assay. NRVM are cultured for 3 days in serum-free medium in the presence of differing amounts of Compound 1. At the end of the culture period, NRVM are fixed and analyzed for α-MyHC protein levels using the BA-G5 monoclonal antibody specific for α-MyHC. Results are collected as RLU using a Packard Fusion Plate reader, and normalized to the signal from samples cultured in the absence of compound (control, set to 100%).
# Preparation and culture of neonatal rat ventricular myocytes (NRVM) was performed by removing hearts from 1-3 day old rat neonatal pups, along with the atria and lungs. The ventricles were cut into smaller pieces and digested 3 times with collagenase for 20-30 min at 37° C. The myocytes were then separated from other cell types using a Percoll gradient. The myocyte layer was collected, washed 2 times, and plated on tissue culture grade 10 cm Petri dishes for 1-2 hrs. The non-adherent cells (myocytes) were removed and plated in Costar clear view 96 well plates coated with 0.2% gelatin for at least 2 hrs. The gelatin solution was removed, and the myocytes were resuspended in DMEM high glucose media (Mediatech) containing 10% charcoal/dextran treated FBS (Hyclone) and 1% Penicillin-Streptomycin-Glutamine (PSG, Gibco). Ten thousand NRVM were plated per well in a 100 μl volume, and incubated overnight at 37° C. in 5% CO2 in air. The following day, the media was replaced with 100 μl of serum-free DMEM high glucose medium supplemented with PSG and 0.3% Nutridoma-SP (Roche).
# Compounds were reconstituted in DMSO at 30 mM, and aliquots were stored at −20° C. A 1:1000 dilution was prepared in serum-free DMEM medium supplemented with PSG and 0.3% Nutridoma, and sonicated for 5 min at room temperature. After sonication, additional 3 fold dilutions were prepared in the same medium. Diluted compound was then added to the NRVM cultures in a volume of 100 μl. A 100 mM thyroid hormone stock solution (T3, Calbiochem) was prepared in 100 mM NaOH and added at a final concentration of 3 nM in DMEM medium supplemented with PSG and 0.3% Nutridoma-SP (Roche). NRVM were cultured for 3 days before detection of α-myosin heavy chain (α-MyHC) protein levels in the cytoblot assay.
# For the α-MyHC cytoblot assay, NRVM cultures were analyzed for α-MyHC protein levels after 3 days of incubation. NRVM were washed 2 times with PBS, fixed with methanol for 30 min at 4° C., and washed an additional 2 times with PBS. Blocking solution consisting of PBS with 1% bovine serum albumin (BSA, Fisher Biotech) was added for 1 hr at room temperature before addition of a saturating amount of supernatant containing an α-MyHC specific antibody for 60 min at room temperature (BA-G5 hybridoma, ATTC). Two washes were performed with PBS/1% BSA, and a 1:500 dilution of HRP-goat anti-mouse IgG (Southern Biotech) diluted in PBS/1% BSA was added for 60 min at room temperature. Excess antibody was removed with 3 PBS washes, and a chemiluminescent substrate was added (Pierce SuperSignal West Pico Chemiluminscent Substrate) for 5 min before quantitation on a Packard Fusion Plate Reader.
# As shown above in Table 1, Compound 1 increased α-MyHC protein levels as determined by an α-MyHC cytoblot assay. Compound 1 was added to NRVM at concentration ranging from 3 nM to 30 μM. After 3 days of incubation with NRVM, α-MyHC protein levels were detected in the cytoblot assay and quantitated (FIG. 1). […] An increase in α-MyHC protein levels was first detected beginning at 30 nM, with a maximal response observed at 3 μM. In six independent experiments, the concentration of Compound 1 that gave a half-maximal response was on average 60 nM.
structure (smiles),measurement,setting,value
CC(=O)C1=C(C)NC(SCC(=O)c2cccc([N+](=O)[O-])c2)=C(C#N)C1c1ccccc1Cl (racemic) [Compound 1],IC50,[1],427 nM
same,α-MyHC protein levels by Western blotting,α-MyHC protein,increasing amounts of α-MyHC protein were observed with increasing amounts of Compound 1
same,% increase of a-MyHC over baseline at 10 mM Cpd,α-MyHC protein levels; 10 mM Cpd,206%
same,concentration at which an increase in α-MyHC protein levels was first detected,α-MyHC protein levels; tested 3 nM to 30 μM,30 nM
same,concentration at which maximal response was observed,α-MyHC protein levels; tested 3 nM to 30 μM,3 µM
same,EC50,"α-MyHC protein levels; Rattus norvegicus, Ventricular myocyte, 72 h, average of six independent experiments, read-out: concentration that gave a half-maximal response (α-MyHC protein levels)",60 nM
